Source: patent publication US4406888A, “Aqueous micellar solutions of levonantradol and N-methyllevonantradol and lyophilic forms thereof for reconstitution” (Pfizer Inc., priority 1981, dated 1983)
Structures can show the parent of a compound that is named as a salt.

Tests used:
[1] = accelerated stability studies, at least nine weeks, 37° C.
Experimental: The procedure comprises dissolving the Polysorbate 80 USP in about 60% of the required water (previously degassed to remove dissolved air) at room temperature. […] The pharmaceutical necessities; i.e., mannitol, sodium citrate and sodium metabisulfite were then added together with about 20-25% of the remaining volume of water required. The pH was adjusted to 5.5 by addition of hydrochloric acid (10%) and the balance of water then added. The resulting formulation was made sterile by filtration and stored in amber vials sealed under a nitrogen atmosphere.
The samples are analyzed for activity by a HPLC method using a Chromegabond C-8 column (silica silylated with octyltrichlorosilane, available from E. S. Industries, 8 South Maple Avenue, Marlton, N.J. 08053). The column is 4.6 mm I.D.×30 cm.; the mobile phase is 60% acetonitrile-40% phosphate buffer (0.05 M, pH 6.3) and the flow rate is 2 ml. per minute. Detection is by UV at 210 nm.

[2] = Water solubility in micellar solutions of Polysorbate 80 USP; type: physicochemical; conditions: for Solubility: 25° C., pH 5.0, based on 88.8% activity
Experimental: This temperature dependence of water solubilty of active ingredient is overcome by the use of sufficient concentration of amphiphile above the cmc such that the solubility of active ingredient is […] at said lowest temperature. The water solubility of active ingredients increases with increasing concentration above the cmc as is shown below for levonantradol in micellar solutions of Polysorbate 80 USP at pH 5.0 and 25° C.

[3] = Stability of the active ingredient upon storage (general statement); type: physicochemical; conditions: particularly in solution

| Compound | stability in micellar solutions [1] | water solubility ([2]; with decreasing temperature) | stability upon storage [3] | Solubility ([2]; 0.1% (w/v) Polysorbate 80 USP) | Solubility ([2]; 0.2% (w/v) Polysorbate 80 USP) | Solubility ([2]; 0.3% (w/v) Polysorbate 80 USP) | Solubility ([2]; 0.4% (w/v) Polysorbate 80 USP) | Solubility ([2]; 0.5% (w/v) Polysorbate 80 USP) | Solubility ([2]; 0.8% (w/v) Polysorbate 80 USP) | Solubility ([2]; 1.0% (w/v) Polysorbate 80 USP) | Solubility ([2]; 1.5% (w/v) Polysorbate 80 USP) | Solubility ([2]; 2.0% (w/v) Polysorbate 80 USP) | Solubility ([2]; 2.5% (w/v) Polysorbate 80 USP) | Solubility ([2]; 3.0% (w/v) Polysorbate 80 USP) | Solubility ([2]; 3.5% (w/v) Polysorbate 80 USP) | Solubility ([2]; 4.0% (w/v) Polysorbate 80 USP) | Solubility ([2]; 4.5% (w/v) Polysorbate 80 USP) | Solubility ([2]; 5.0% (w/v) Polysorbate 80 USP) | Solubility ([2]; 7.0% (w/v) Polysorbate 80 USP) | water solubility ([2]; presence of a relatively low concentration of Polysorbate 80) |
| --- | --- | --- | --- | --- | --- | --- | --- | --- | --- | --- | --- | --- | --- | --- | --- | --- | --- | --- | --- | --- |
| CC(=O)Oc1cc(O[C@H](C)CCCc2ccccc2)cc2c1[C@@H]1C[C@H](O)CC[C@H]1[C@H](C)N2 [Levonantradol, [6S-[3S*,6-alpha,6a-alpha,9-alpha,10a-beta]]-5,6,6a,7,8,9,10,10a-octahydro-6-methyl-3-(1-methyl-4-phenylbutoxy)-1,9-phenanthridinediol 1-acetate, hydrochloride] | completely stable | reduced water solubility with decreasing temperature | subject to decomposition upon storage |  |  |  |  |  |  |  |  |  |  |  |  |  |  |  |  |  |
| CC(=O)Oc1cc(O[C@H](C)CCCc2ccccc2)cc2c1[C@@H]1C[C@H](O)CC[C@H]1[C@H](C)N2 [Levonantradol.HC1, [6S-[3S*,6-alpha,6a-alpha,9-alpha,10a-beta]]-5,6,6a,7,8,9,10,10a-octahydro-6-methyl-3-(1-methyl-4-phenylbutoxy)-1,9-phenanthridinediol 1-acetate, hydrochloride] |  |  |  | 2.2 µg/mL | 67 µg/mL | 130 µg/mL | 290 µg/mL | 430 µg/mL | 880 µg/mL | 1230 µg/mL | 2040 µg/mL | 2850 µg/mL | 3810 µg/mL | 4440 µg/mL | 5600 µg/mL | 6300 µg/mL | 6990 µg/mL | 7550 µg/mL | 11280 µg/mL | markedly increased |
| CC(=O)Oc1cc(O[C@H](C)CCCc2ccccc2)cc2c1[C@@H]1C[C@H](O)CC[C@H]1[C@H](C)N2C [N-methyllevonantradol] |  | reduced water solubility with decreasing temperature | subject to decomposition upon storage |  |  |  |  |  |  |  |  |  |  |  |  |  |  |  |  |  |
